Measured values taken from patent EP4640674A1, “CRYSTAL FORMS OF ETHOXIMOD, PREPARATION METHOD THEREFOR AND USE THEREOF” (Jiankuan (Suzhou) Biotechnology Co., Ltd, priority 2022, dated 2024).

Test: Stability of crystal form C on drying (XRPD)
Format: physicochemical
Excerpt: The sample was subjected to a TGA test. From the above results, it is speculated that the crystal form C is an unstable channel hydrate that is prone to crystal transformation during drying and placement, making the preparation of a pure phase difficult.

**Q.** What does the source list for `CCc1nc(-c2ccc(-c3ccc(CCC(N)(CO)CO)cc3)cc2)co1.Cl` [crystal form C, 2-amino-2-{2-(4'-(2-ethyloxazol-4-yl)-[1,1'-biphenyl]-4-yl)ethyl}-1,3-propylene glycol hydrochloride]?
**A.** crystal form after drying (XRPD) (purged with nitrogen at room temperature for 3 h): partially crystal transformed into the crystal form A; crystal form after drying (XRPD) (vacuum at 50 °C under reduced pressure, dried overnight): partially crystal transformed into a crystal form A
